From patent EP2155158B1, “PERSONAL LUBRICANT COMPOSITION” (LRC Products Limited, priority 2007, dated 2008)
Read-outs that look alike come from different tables or passages of the source.

How the values were obtained:
[1] = Cooling strength of coolants relative to menthol; settings: menthol = 100
Source text: N-ethyl-p-menthane-3-carboxamide has, to date, primarily been used in oral, medicinal and confectionary products, such as breath freshening chewing gums. […]

[2] = Crystallisation / clouding at low temperatures; type: physicochemical
[3] = Volatility compared with menthol; type: physicochemical

Compound | Cooling strength relative to menthol [1] | also measured
C=C(C)C1CCC(C)CC1O (stereo not shown) [Isopulegol, 2-isopropenyl-5-methyl-cyclohexanol] | 25 | 
CC1CCC(C(C)C)C(O)C1 (stereo not shown) [Menthol] | 100 | loss of coolant on storage (reduction in the level of retained coolant) (personal lubricant formulation, 2190 h): about 50%
CC1CCC(C(C)C)C(OC(=O)C(C)O)C1 (stereo not shown) [Menthyl lactate] | 43 | 
CCNC(=O)C1CC(C)CCC1C(C)C (stereo not shown) [WS-3, N-ethyl-p-menthane-3-carboxamide] | 150 | crystallisation at low temperatures [2]: does not crystallise at low temperatures; volatility [3]: lower volatility than menthol; loss of coolant on storage (reduction in the level of retained coolant) (in personal lubricant formulation, storage for 3 months at 40°C): no loss
CNC(=O)C(C)(C(C)C)C(C)C [WS-23] | 75 | 
Menthone lactate | 41 | 
